Measurements published in patent US9051467B2, “Method of analysing a cell or other biological material containing a nucleic acid” (BIOSTATUS LIMITED, priority 2010, dated 2015).

Experiments:
human Jurkat cells = assay: Multi-parameter JC-1 / compound (IA) analysis of staurosporine treated cells; assay type: cell-based; settings: 3 μM with JC-1, Jurkat cells, 1 μM staurosporine for 4 hours
Source text: In this example, the dye JC-1 (5,5′,6,6′-tetrachloro-1,1′,3,3′-tetraethylbenzimidazol-carbocyanine iodide) is a lipophilic fluorescent cation that incorporates into the mitochondrial membrane, where it can form aggregates due to the physiological maintenance membrane potential of mitochondria. Aggregation modifies the fluorescence properties of JC-1 leading to a shift from green to orange fluorescence. Flow cytometry or imaging was used to monitor the decrease of the orange fluorescence and an increase of the green fluorescence allowing apoptotic cells to be distinguished from non-apoptotic cells.
Cell culture and drug treatment: A Jurkat cell line was used in this study Jurkat cultures was routinely maintained in RPMI 1640 supplemented with 10% FCS and 100 U ml-1 penicillin, 100 μg ml-1 streptomycin, and 2 mM glutamine. […] These were then analysed by flow cytometry or placed into a Nunc, 2 Well Lab-Tek II, (Fisher Scientific) and analysed by three channel confocal microscopy.
Multi-parameter flow cytometry of staurosporine treated cells A FACS Vantage flow cytometer (as for example above). […] JC-1 two parameter fluorescent signal were derived from 488 nm excitation were detected in logarithmic mode Green J-monomer was detected using FL1 (530/30 nm emission); Orange J-aggregate was detected using FL2 (585/42 nm emission). […]

[1] = system: fixed U-2 OS human osteosarcoma cells; assay: Nuclear staining of fixed cells by fluorescence microscopy; assay type: cell-based; settings: 20 μM, cells fixed with 4% paraformaldehyde
Protocol: Cell culture: Human osteosarcoma cells U-20S (ATCC HTB-96) cells (adherent) were cultured in McCoy's 5a medium supplemented with 10% foetal calf serum (FCS), 1 mM glutamine, and antibiotics and incubated at 37° C. in an atmosphere of 5% CO2 in air. For fluorescence imaging experiments, cells were grown at a density of 1×10^5 cells ml^−1 as a monolayer in coverglass bottomed chambers (Nunc, 2 Well Lab-Tek II, Fisher Scientific). Imaging: Following a 24 hour period cells were then fixed with 4% paraformaldehyde in PBS for 15-30 min at room temperature. No washing step is required. Compound (IA) was used in a manner appropriate to being the final staining procedure, after any treatment. Compound (IA) was added directly at 20 μM in to a 0.5 ml PBS overlay of the adherent cells. Cells were directly viewed using wide-field fluorescence microscopy. Chambers were placed onto an Axiovert 100 microscope (Carl Zeiss, Welwyn Garden City, UK and using a 40×, 1.3 NA oil immersion plan apochromat lens).fluorescence images (Ex: 620/60 nm; Em 700/75 nm) nm captured using an ORCA-ER CCD camera (Hamamatsu, Reading, UK) and MetaMorph (MDS, USA) acquisition software. […] The compound (IA) staining of nuclei were segmented using a simple threshold algorithm which depict the nuclei, and provide binary or mask information of each nucleus (object) localization. […]

[2] = Spectral properties (absorbance and fluorescence spectra); assay type: physicochemical; settings: for Em peak / Ex peak: FIG. 1, in general terms (diagrammatically)
Source text: (§1) These possible detection systems and others will now be described in more detail with reference to FIGS. 1 to 9. […] Therefore, the Compound of Formula (IIA) fluorescence is generally in the orange portion of the visible spectrum, whereas compound (IA) fluorescence is generally in the far red portion of the visible spectrum. […] The compound of Formula (IIA) is a cell permeant dye, and therefore it would be expected that the fluorescence signature B would be in connection with live or dead cells. […] As might perhaps be expected, it is only the fluorescence signature B associated with the cell permeant dye which is observed. […] It might be expected that a significant contribution of the observed fluorescence would emanate from the compound of Formula (IIA) dye. […] Therefore, the compound (IA) dye appears to quench the compound of Formula (IIA) signal. […] However, other mechanisms may play a role. The upshot is that it is possible to provide a “traffic light” system to indicate the state of a cell, wherein fluorescence in one spectral region A is associated with dead cells, and fluorescence in another spectral region B is associated with live cells.
Compound (IA) was synthesized using the principles described in Example 2 and stored at +4° C. as a stock solution of 5 mM compound (IA) dilution in buffer. Absorbance spectra were obtained using a spectrometer and a 20 μM solution of agent dissolved in PBS and measured in a 1 cm path quartz silica cuvette. Fluorescence spectra for a solution of 20 μM compound (IA) in a 1 cm path length semi-micro quartz cuvette were determined by excitation at 633, 589, 534, 488 nm. Fluorescence measurements were made on a Perkin Elmer LS50 spectrofluorometer with slit widths set at 10 nm. The spectrofluoremeter was equipped with a red-sensitive photomultiplier tube (Type R928; Hamamatsu Photonics KK, Japan. Data were accumulated and exported into a spread sheet to correct for the buffer control and to determine emission maxima. The results are shown in FIG. 8. Compound (IA) may be sub-optimally excited by wavelengths from 488 nm (in flow cytometry) and up to 647 nm (Exλmax 646 nm). Typically, for cell imaging, excitation is performed with either 633 nm or 647 nm wavelengths. Emission spectra are independent of excitation wavelength, ie, all the emission spectra are identical irrespective of excitation wavelength.

[3] = system: live cells and dead cells; assay: Cell permeant/cell impermeant dye combination staining of live and dead cells; assay type: cell-based; design: key to Live cell stain / Dead cell stain: +: positive; −: negative; settings: for Dead cell stain / Live cell stain: combination staining pattern, predicted
Source text: It will be appreciated that this provides the opportunity to perform numerous advantageous two-colour, two-fluorochrome experiments. Moreover, the present inventors have realised that dye combinations of this type also provide a platform for performing a range of advantageous experiments using one or more further fluorochromes.
as §1

[4] = system: DoHH2 cultures treated with VP-16; assay: Combination tracking of cell status with compound (IA) plus compound (IIA), flow cytometry; assay type: cell-based, human; settings: 20 μM compound (IIA) and 4 μM compound (IA), 10 minutes, VP-16 0.25 μM
Protocol: Cell culture and drug treatment: A human follicular B-lymphoma cell line was used in this study. DoHH2 was routinely maintained in RPMI 1640 supplemented with 5% FCS and 100 U ml-1 penicillin, 100 μgml^−1 streptomycin, and 2 mM glutamine. The cells were passaged twice weekly at an initiating density of 5×10^4 cells ml^−1 cultured at 37° C. in a humidified atmosphere of 5% CO2/95% air. Cells were set at 5×10^5 cells/per ml and exposed to VP-16 doses (0.25 μM) to induce apoptosis. 20 μM Compound (IIA) and 4 μM compound (IA) were added to 1 ml of cells and incubated under standard culture conditions for 10 minutes. The samples were analysed by flow cytometry.
A FACS Vantage flow cytometer (as for example above) was used. Compound (IIA) and compound (IA) fluorescent signals derived from 488 nm excitation were detected in linear mode at FL2 for Compound (IIA) (585/42 nm filters); compound (IA) signal derived from 488 nm were detected in linear mode at FL3 with a 695LP filter and a FL1/2 560 nm SP dichroic SP to determine scatter properties. Signals for forward and side scatter and fluorescence were collected for 10,000 cells using the forward light scatter parameter as the master signal. Contour plots of side versus forward scatter depict two populations of cells. The addition of Compound (IIA) and compound (IA) provide functional status of these cultures. […]

## 1,5-Bis{[2-(trimethylamino)ethyl]amino}-5,8-dihydroxyanthracene-9,10-dione iodide [Compound (IA)]
Human Jurkat cells
  Discrimination of early and late apoptosis sub-fractions: can depict these sub-fractions
[1]
  Nuclear localisation of dye: localization of high levels of compound (IA) in the nucleus
[2]; 20 μM solution in PBS
  Exλmax: 646 nm
[2]
  Em peak: 660 nm
  Ex peak: 620 nm
[3]
  Cell permeation property: cell impermeant
  Dead cell stain: +
  Live cell stain: −
[4]
  Cell fraction identified: identifies the non-intact cell fraction

## CN(C)CCNc1cccc2c1C(=O)c1cccc(NCCN(C)C)c1C2=O [Compound (IIA), 1,5-Bis{[2-(dimethylamino)ethyl]amino}anthracene-9,10-dione]
[2]
  Em peak: 615 nm
  Ex peak: 518 nm
[3]
  Cell permeation property: cell permeant
  Dead cell stain: −
  Live cell stain: +
[3]; in combination with compound (IA)
  Fluorescence observed in dead cells: little or no fluorescence
[4]
  Cell fraction identified: positive cells represent the live cell (viable) fraction
